# Target: T1, human histamine H3 receptor (Homo sapiens, UniProt Q9Y5N1)
# T1 construct: One microgram supercoiled H3 receptor cDNA was added to the cells and mixed; expressed in transfected cells; membranes prepared from cell pellets
# Experiment: [3H]-N-methylhistamine binding
# Details: membranes of histamine H3 receptor-expressing SK-N-MC cells; 0.8 nM [3H]-N-methylhistamine; 45 minutes at 25° C.; Ki calculated with KD of 800 pM
# Procedure: Screening using the human receptor is particularly important for the identification of new therapies for the treatment of human disease.
# A 10 cm tissue culture dish with a confluent monolayer of SK-N-MC cells was split two days prior to transfection. Using sterile technique the media was removed and the cells were detached from the dish by the addition of trypsin. One fifth of the cells were then placed onto a new 10 cm dish. Cells were grown in a 37° C. incubator with 5% CO2 in Minimal Essential Media Eagle with 10% Fetal Bovine Serum. After two days cells were approximately 80% confluent. These were removed from the dish with trypsin and pelleted in a clinical centrifuge. […] One microgram supercoiled H3 receptor cDNA was added to the cells and mixed. The voltage for the electroporation was set at 0.25 kV, the capacitance is set at 960 μF.
# After electroporation the cells were diluted into 10 mL complete media and plated onto four 10 cm dishes. Due to the variability in the efficiency of electroporation, four different concentrations of cells were plated. The ratios used were: 1:20, 1:10, and 1:5, with the remainder of the cells being added to the fourth dish. The cells were allowed to recover for 24 hours before adding the selection media (complete media with 600 μg/ml G418). After 10 days dishes were analyzed for surviving colonies of cells. Dishes with well-isolated colonies were used. Cells from individual colonies were isolated and tested. SK-N-MC cells were used because they give efficient coupling for inhibition of adenylate cyclase. The clones that gave the most robust inhibition of adenylate cyclase in response to histamine were used for further study.
# Cell pellets from histamine H3 receptor-expressing SK-N-MC cells were homogenized in 20 mM Tris HCl/0.5 mM EDTA. Supernatants from a 800 g spin were collected, reccentrifuged at 30,000 g for 30 minutes. Pellets were rehomogenized in 50 mM Tris/5 mM EDTA (pH 7.4). Membranes were incubated with 0.8 nM [^3H]-N-methylhistamine plus/minus test compounds for 45 minutes at 25° C. and harvested by rapid filtration over GF/C glass fiber filters (pretreated with 0.3% polyethylenimine) followed by four washes with ice cold buffer. Filters were dried, added to 4 mL scintillation cocktail and then counted on a liquid scintillation counter.
# T1 sequence (Q9Y5N1 whole entry): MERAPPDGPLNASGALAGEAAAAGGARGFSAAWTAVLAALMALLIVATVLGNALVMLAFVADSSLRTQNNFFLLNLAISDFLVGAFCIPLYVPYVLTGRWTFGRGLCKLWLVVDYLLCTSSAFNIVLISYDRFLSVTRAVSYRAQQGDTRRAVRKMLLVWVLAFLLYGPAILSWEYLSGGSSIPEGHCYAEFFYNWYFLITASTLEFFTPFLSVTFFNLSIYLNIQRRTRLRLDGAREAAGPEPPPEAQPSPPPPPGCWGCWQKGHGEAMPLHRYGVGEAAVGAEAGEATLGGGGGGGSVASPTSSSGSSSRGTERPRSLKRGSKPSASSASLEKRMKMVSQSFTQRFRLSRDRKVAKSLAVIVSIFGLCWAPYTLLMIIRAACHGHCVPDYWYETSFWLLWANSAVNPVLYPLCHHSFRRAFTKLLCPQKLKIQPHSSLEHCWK
row,Ki [nM],SMILES
1,11,"Cc1ccn2cc(-c3ccc(C=CCCN4CCCCC4)cc3)nc2c1 (mixture of isomers) [Example 36, (E/Z)-2-[4-[4-Piperidinobut-1-enyl]phenyl]-7-methylimidazo[1,2-a]pyridine]"
2,90,"CCN(CC)CCNC(=O)c1ccc(-c2cn3cccc(C)c3n2)cc1 [Example 1, N-(2-Diethylamino-ethyl)-4-(8-methyl-imidazo[1,2-a]pyridin-2-yl)-benzamide]"
3,89,"Cc1cccn2cc(-c3ccc(C(=O)OCCN(C)C)cc3)nc12 [Example 2, 4-(8-Methyl-imidazo[1,2-a]pyridin-2-yl)-benzoic acid 2-dimethylamino-ethyl ester]"
4,20,"CCN(CC)CCOC(=O)c1ccc(-c2cn3cccc(C)c3n2)cc1 [Example 3, 4-(8-Methyl-imidazo[1,2-a]pyridin-2-yl)-benzoic acid 2-diethylamino-ethyl ester]"
5,70,"Cc1cccn2cc(-c3ccc(NC(=O)CN4CCCC4)cc3)nc12 [Example 4, N-[4-(8-Methyl-imidazo[1,2-a]pyridin-2-yl)-phenyl]-2-pyrrolidin-1-yl-acetamide]"
6,50,"CCCN(CCC)CC(C)COc1ccc(-c2cn3cccc(C)c3n2)cc1 (stereo not drawn) [Example 5, {2-Methyl-3-[4-(8-methyl-imidazo[1,2-a]pyridin-2-yl)-phenoxy]-propyl}-dipropyl-amine]"
7,55,"CCN(CC)CCC(=O)Nc1ccc(-c2cn3cccc(C)c3n2)cc1 [Example 6, 3-Diethylamino-N-[4-(8-methyl-imidazo[1,2-a]pyridin-2-yl)-phenyl]-propionamide]"
8,4,"CCN(CC)CCNc1ccc(-c2cn3cccc(C)c3n2)cc1 [Example 7, N,N-Diethyl-N′-[4-(8-methyl-imidazo[1,2-a]pyridin-2-yl)-phenyl]-ethane-1,2-diamine]"
9,32,"Cc1cc(-c2cn3cccc(C)c3n2)ccc1OCCCN1CCCCC1 [Example 9, 2-(4-Piperidinopropoxy-3-methylphenyl)-8-methylimidazo[1,2-a]pyridine]"
10,611,"CCN(CCOc1ccc(-c2cn3ccccc3n2)cc1)c1ccccc1 [Example 10, 2-(4-(N-Ethyl)anilinoethoxyphenyl)imidazo[1,2-a]pyridine]"
11,7,"Cc1cc(-c2cn3ccccc3n2)ccc1OCCC1CCCN1C (stereo not drawn) [Example 11, 2-[4-[2-(1-Methyl)-2-pyrrolidino]ethoxy-3-methylphenyl]imidazo[1,2-a]pyridine]"
12,21,"Cc1cc(-c2cn3ccccc3n2)ccc1OCCCN1CCCCC1 [Example 12, 2-(4-Piperidinopropoxy-3-methylphenyl)imidazo[1,2-a]pyridine]"
13,63,"COc1cc(-c2cn3ccc(C)cc3n2)ccc1OCCCN1CCCC1 [Example 13, 2-[3-Methoxy-4-(3-pyrrolidin-1-yl-propoxy)-phenyl]-7-methyl-imidazo[1,2-a]pyridine]"
14,34,"COc1cc(-c2cn3ccc(C)cc3n2)ccc1OCCCN1CCCCCC1 [Example 14, 2-[4-(3-Azepan-1-yl-propoxy)-3-methoxy-phenyl]-7-methyl-imidazo[1,2-a]pyridine]"
15,28,"Cc1ccn2cc(-c3cccc(OCCCN4CCCCC4)c3)nc2c1 [Example 15, 7-Methyl-2-[3-(3-piperidin-1-yl-propoxy)-phenyl]-imidazo[1,2-a]pyridine]"
16,0.75,"c1cc(-c2cn3c(n2)CCCC3)ccc1OCCCN1CCCCC1 [Example 16, 2-[4-(3-Piperidin-1-yl-propoxy)-phenyl]-5,6,7,8-tetrahydro-imidazo[1,2-a]pyridine]"
17,3.2,"Cc1cc(OCCCN2CCCCC2)ccc1-c1cn2c(n1)CC(C)CC2 (stereo not drawn) [Example 17, 7-Methyl-2-[2-methyl-4-(3-piperidin-1-yl-propoxy)-phenyl]-5,6,7,8-tetrahydro-imidazo[1,2-a]pyridine]"
18,2,"Cc1ccn2cc(-c3ccc(OCCCN4CCCC4)cc3)nc2c1 [Example 18, 2-(4-Pyrrolidinopropoxyphenyl)-7-methylimidazo[1,2-a]pyridine]"
19,2,Cc1ccn2cc(-c3ccc(OCCCN4CCCCCC4)cc3)nc2c1 [Example 19]
20,10,"Cc1ccn2cc(-c3ccc(OCCCN4CCCCC4)cc3F)nc2c1 [Example 20, 2-(4-Piperidinopropoxy-2-fluorophenyl)-7-methylimidazo[1,2-a]pyridine]"
21,15,Cc1ccn2cc(-c3ccc(OCCCN4CCCCCC4)cc3F)nc2c1 [Example 21]

row,Ki [nM],SMILES
1,1,"Cc1ccn2cc(-c3ccc(OCCCN4CCCCC4)cc3C)nc2c1 [Example 22, 2-(4-Piperidinopropoxy-2-methylphenyl)-7-methylimidazo[1,2-a]pyridine]"
2,14,"Cc1ccn2cc(-c3ccc(OCCCN4CCC(N5CCCCC5)CC4)cc3C)nc2c1 [Example 23, 2-(4-(4-Piperidino)piperidinopropoxy-2-methylphenyl)-7-methylimidazo[1,2-a]pyridine]"
3,0.5,Cc1ccn2cc(-c3ccc(OCCCN4CCCCCC4)cc3C)nc2c1 [Example 24]
4,1500,"Cc1ccn2cc(-c3ccc(OCCCNCc4ccc(F)cc4)cc3)nc2c1 [Example 25, 2-(4-(4-Fluorobenzyl)aminopropoxyphenyl)-7-methylimidazo[1,2-a]pyridine]"
5,159,"COc1cc(-c2cn3ccc(C)cc3n2)ccc1OCCCN1CCCCC1 [Example 26, 2-(4-Piperidinopropoxy-3-methoxyphenyl)-7-methylimidazo[1,2-a]pyridine]"
6,7,"Cc1cccn2cc(-c3ccc(NCCCN4CCCCC4)cc3)nc12 [Example 27, 2-[4-[3-(Piperidino)propylamino]phenyl]-8-methylimidazo[1,2-a]pyridine]"
7,158,"Cc1cccn2cc(-c3ccc(NC(=O)CCN4CCCCC4)cc3)nc12 [Example 28, 2-[4-[3-(Piperidinyl)]propanamidophenyl]-8-methylimidazo[1,2-a]pyridine]"
8,9,"CCN(CC)CCCNc1ccc(-c2cn3cccc(C)c3n2)cc1 [Example 29, N,N-Diethyl-N′-[4-(8-methyl-imidazo[1,2-a]pyridin-2-yl)-phenyl]-propane-1,3-diamine]"
9,3,"CCN(CC)CCCNc1ccc(-c2cn3ccc(C)cc3n2)cc1 [Example 30, N,N-Diethyl-N′-[4-(7-methyl-imidazo[1,2-a]pyridin-2-yl)-phenyl]-propane-1,3-diamine]"
10,8,"Cc1cccn2cc(-c3ccc(NCCN4CCCCC4)cc3)nc12 [Example 31, [4-(8-Methyl-imidazo[1,2-a]pyridin-2-yl)-phenyl]-(2-piperidin-1-yl-ethyl)-amine]"
11,7,"Cc1cccn2cc(-c3ccc(NCCN4CCCC4)cc3)nc12 [Example 32, [4-(8-Methyl-imidazo[1,2-a]pyridin-2-yl)-phenyl]-(2-pyrrolidin-1-yl-ethyl)-amine]"
12,3,"Cc1ccn2cc(-c3ccc(C#CCCN4CCCCC4)cc3)nc2c1 [Example 33, 2-[4-[4-Piperidinobut-1-ynyl]phenyl]-7-methylimidazo[1,2-a]pyridine]"
13,3,"Cc1ccn2cc(-c3ccc(C#CCCN4CCCC4)cc3)nc2c1 [Example 34, 2-[4-[4-Pyrrolidinobut-1-ynyl]phenyl]-7-methylimidazo[1,2-a]pyridine]"
14,50,Cc1ccn2cc(-c3ccc(C#CCCN4CCCCCC4)cc3)nc2c1 [Example 35]
15,10,"Cc1ccn2cc(-c3ccc(CCCCN4CCCC4)cc3)nc2c1 [Example 37, 2-[4-[4-Pyrrolidinobutyl]phenyl]-7-methylimidazo[1,2-a]pyridine]"
16,29,"Cc1ccn2cc(-c3ccc(CCCCN4CCCCC4)cc3)nc2c1 [Example 38, 7-Methyl-2-[4-(4-piperdin-1-yl-butyl)-phenyl]imidazo[1,2-a]pyridine]"
17,57,"Cc1ccn2cc(-c3ccc(CCCCN4CCCCCC4)cc3)nc2c1 [Example 39, 2-[4-(4-Azepan-1-yl-butyl)-phenyl]-7-methyl-imidazo[1,2-a]pyridine]"
18,17,"Cc1ccn2cc(-c3ccc(/C=C/CCN4CCCC4)cc3)nc2c1 [Example 40, 7-Methyl-2-[4-(4-pyrrolidin-1-yl-but-1-enyl)-phenyl]imidazo[1,2-a]pyridine]"
19,27,"CC1CCn2cc(-c3ccc(CCCCN4CCCCC4)cc3)nc2C1 (stereo not drawn) [Example 41, 7-Methyl-2-[4-(4-piperidin-1-yl-butyl)-phenyl]-5,6,7,8-tetrahydro-imidazo[1,2-a]pyridine]"
20,1000,"Cc1cccn2cc(-c3ccc(OCCCNC(C)c4ccccc4)cc3)nc12 (stereo not drawn) [Example 42, 2-(4-alpha-Methylbenzylaminopropoxyphenyl)-8-methylimidazo[1,2-a]pyridine]"
21,1000,"Cc1cccn2cc(-c3ccc(OCCCNCc4ccccc4)cc3)nc12 [Example 43, 2-(4-Benzylaminopropoxyphenyl)-8-methylimidazo[1,2-a]pyridine]"

# — patent US7087757B2, “Phenyl-substituted imidazopyridines” (Ortho-McNeil Pharmaceutical, Inc., priority 2000, dated 2006)
